Assay: Storage stability in amber glass vials at pH 7, 7.5 and 8, 19 mM buffer
Type: physicochemical
Conditions: for Acetal impurity / Amine impurity / Description / Regiomer / Sum Impurities >0.05 / Total impurity / Triol impurity / pH / Assay: HPβCD 40% w/w; for Assay: in %
Method: To optimize the HPβCD concentration and the pH of the solution for intravenous use, a 12 week/3 months stability study was conducted. […] Its stability was tested at regular intervals.
A comparison of stability profile at 3 different pH—7, 7.5 and 8—was carried out as below, the manufacturing process for all 3 formulations was kept constant with buffer strength at 19 mM.

[1] = 19 mM pH 7 Phosphate Buffer, 1 M
[2] = 19 mM pH 7 Phosphate Buffer, 2 M
[3] = 19 mM pH 7 Phosphate Buffer, 3 M
[4] = 19 mM pH 7 Phosphate Buffer, T0
[5] = 19 mM pH 7.5 Phosphate Buffer, 1 M
[6] = 19 mM pH 7.5 Phosphate Buffer, 2 M
[7] = 19 mM pH 7.5 Phosphate Buffer, 3 M
[8] = 19 mM pH 7.5 Phosphate Buffer, T0
[9] = 19 mM pH 8 Phosphate buffer, 1 M
[10] = 19 mM pH 8 Phosphate buffer, 2 M
[11] = 19 mM pH 8 Phosphate buffer, 3 M
[12] = 19 mM pH 8 Phosphate buffer, T0

In the case of CCCSc1nc(N[C@@H]2C[C@H]2c2ccc(F)c(F)c2)c2nnn([C@@H]3C[C@H](OCCO)[C@@H](O)[C@H]3O)c2n1 [Ticagrelor, (1S,2S,3R,5S)-3-{7-[(1R,2S)-2-(3,4-difluorophenyl)cyclopropylamino]5-(propylthio)-3H-(1,2,3)triazolo (4,5-D)pyrimidin-3-yl}-5-(2 hydroxyethoxy)cyclopentane-1,2-diol], the Acetal impurity [1] is reported as 0.05%, the Amine impurity [1] is reported as 0.04% and the Description [1] is reported as “clear”. For the same compound, the Regiomer [1] was 0.03%, the “Sum Impurities >0.05” value [1] was 0.05% and the Total impurity [1] was 0.27%. It also gave a Triol impurity [1] of 0.02%, a pH [1] of 7.34 and an Assay [1] of 99.73. The Acetal impurity [2] was 0.05%, the Amine impurity [2] was 0.04% and the Description [2] was “clear”. The Regiomer [2] was 0.06%, the “Sum Impurities >0.05” value [2] was 0.11% and the Total impurity [2] was 0.34%. It also gave a Triol impurity [2] of 0.04%, a pH [2] of 7.34 and an Assay [2] of 99.81. The Acetal impurity [3] was 0.05%, the Amine impurity [3] was 0.06% and the Description [3] was “clear”. For the same compound, the Regiomer [3] was 0.11%, the “Sum Impurities >0.05” value [3] was 0.22% and the Total impurity [3] was 0.40%. For the same compound, the Triol impurity [3] was 0.04%, the pH [3] was 7.30 and the Assay [3] was 98.51. For the same compound, the Acetal impurity [4] was 0.05%, the Amine impurity [4] was 0.04% and the Description [4] was “clear”. For the same compound, the Regiomer [4] was 0.00%, the “Sum Impurities >0.05” value [4] was 0.22% and the Total impurity [4] was 0.41%. It also gave a Triol impurity [4] of 0.05%, a pH [4] of 7.33 and an Assay [4] of 98.95. The Acetal impurity [5] was 0.05%, the Amine impurity [5] was 0.05% and the Description [5] was “clear”. The Regiomer [5] was 0.01%, the “Sum Impurities >0.05” value [5] was 0.14% and the Total impurity [5] was 0.32%. The Triol impurity [5] was 0.05%, the pH [5] was 7.50 and the Assay [5] was 104.47. For the same compound, the Acetal impurity [6] was 0.05%, the Amine impurity [6] was 0.05% and the Description [6] was “clear”. The Regiomer [6] was 0.04%, the “Sum Impurities >0.05” value [6] was 0.15% and the Total impurity [6] was 0.29%. For the same compound, the Triol impurity [6] was 0.05%, the pH [6] was 7.48 and the Assay [6] was 102.59. The Acetal impurity [7] was 0.05%, the Amine impurity [7] was 0.05% and the Description [7] was “clear”. For the same compound, the Regiomer [7] was 0.08%, the “Sum Impurities >0.05” value [7] was 0.23% and the Total impurity [7] was 0.41%. It also gave a Triol impurity [7] of 0.04%, a pH [7] of 7.55 and an Assay [7] of 102.31. For the same compound, the Acetal impurity [8] was 0.05%, the Amine impurity [8] was 0.04% and the Description [8] was “clear”. For the same compound, the Regiomer [8] was 0.00%, the “Sum Impurities >0.05” value [8] was 0.11% and the Total impurity [8] was 0.31%. It also gave a Triol impurity [8] of 0.04%, a pH [8] of 7.40 and an Assay [8] of 104.27. For the same compound, the Acetal impurity [9] was 0.05%, the Amine impurity [9] was 0.05% and the Description [9] was “clear”. For the same compound, the Regiomer [9] was 0.01%, the “Sum Impurities >0.05” value [9] was 0.09% and the Total impurity [9] was 0.26%. For the same compound, the Triol impurity [9] was 0.03%, the pH [9] was 8.10 and the Assay [9] was 105.88. The Acetal impurity [10] was 0.05%, the Amine impurity [10] was 0.05% and the Description [10] was “clear”. The Regiomer [10] was 0.03%, the “Sum Impurities >0.05” value [10] was 0.15% and the Total impurity [10] was 0.32%. The Triol impurity [10] was 0.05%, the pH [10] was 8.04 and the Assay [10] was 105.46. The Acetal impurity [11] was 0.05%, the Amine impurity [11] was 0.07% and the Description [11] was “clear”. For the same compound, the Regiomer [11] was 0.06%, the “Sum Impurities >0.05” value [11] was 0.23% and the Total impurity [11] was 0.37%. For the same compound, the Triol impurity [11] was 0.05%, the pH [11] was 8.03 and the Assay [11] was 104.46. The Acetal impurity [12] was 0.05%, the Amine impurity [12] was 0.04% and the Description [12] was “clear”. For the same compound, the Regiomer [12] was 0.00%, the “Sum Impurities >0.05” value [12] was 0.25% and the Total impurity [12] was 0.43%. It also gave a Triol impurity [12] of 0.06%, a pH [12] of 8.07 and an Assay [12] of 103.25. For the same compound, the “Stability of solution in HPβCD” value (pH range of 7 to 8) was “stable”.

From patent US20250235455A1, “AQUEOUS TICAGRELOR SOLUTIONS, METHOD OF MANUFACTURING AND USES” (HYLORIS DEVELOPMENTS SA, priority 2022, published 2025)
